{"source": "paper PMC9301601", "about": "(Frontiers in Pharmacology, 2022)", "key": {"hiPSC-CMs": {"tested_on": "hiPSC-CMs", "experiment": "Action potential recording in hiPSC-CMs, whole-cell patch-clamp (current-clamp)", "type": "cell-based, human", "conditions": "for decrease of APD vs CTL / APD (APD90): 24-h incubation; for APD (APD90): CTL 364.4 ms, p < 0.0001, n = 14; for early after-depolarizations (EADs) during repolarization: transient effect, recorded within 1 hour"}, "[1]": {"tested_on": "sodium or calcium channels (SLC8A1, CACNA1C, SCN5A)", "experiment": "RT-qPCR of cardiac ion channel genes in hiPSC-CMs: sodium or calcium channels", "type": "cell-based, human", "conditions": "GAPDH housekeeping"}, "KCNQ1": {"tested_on": "KCNQ1", "experiment": "RT-qPCR of KCNQ1 in hiPSC-CMs", "type": "cell-based, human"}, "Ito": {"tested_on": "Ito", "parameters": "method as in Chen et al., 2020; Guo et al., 2021", "conditions": "as a sigma-1 receptor agonist; ref Chen et al., 2020; Guo et al., 2021; cited from earlier work"}, "ICaL": {"tested_on": "ICaL", "parameters": "method as in Chen et al., 2020; Guo et al., 2021", "conditions": "as a sigma-1 receptor agonist; ref Chen et al., 2020; Guo et al., 2021; cited from earlier work"}, "COVID-19": {"tested_on": "COVID-19", "parameters": "method as in Lenze et al., 2020", "conditions": "hospitalized patients with COVID-19, double-blind RCT; ref Lenze et al., 2020; cited from earlier work"}, "Hsp70": {"tested_on": "Hsp70", "experiment": "Western blot of chaperone Hsp70 after 24 h incubation", "type": "cell-based, human", "conditions": "LPV 1-20 μM, especially at 10 μM"}, "Hsp90": {"tested_on": "Hsp90", "experiment": "Western blot of chaperone Hsp90 after 24 h incubation", "type": "cell-based, human", "conditions": "LPV 1-20 μM"}, "SARS-CoV-2": {"tested_on": "SARS-CoV-2", "parameters": "method as in Lou et al., 2021", "conditions": "read-out: 50% effective inhibition concentration (EC50) against SARS-CoV-2; ref Lou et al., 2021; cited from earlier work"}, "hERG potassium channel": {"tested_on": "hERG potassium channel", "parameters": "method as in Szendrey et al., 2021", "conditions": "ref Szendrey et al., 2021; cited from earlier work"}, "hERG protein": {"tested_on": "hERG protein", "parameters": "method as in Borsini et al., 2012", "conditions": "ref Borsini et al., 2012; cited from earlier work"}, "hERG": {"tested_on": "hERG", "parameters": "method as in Szendrey et al., 2021", "conditions": "when acting alone; ref Szendrey et al., 2021; cited from earlier work"}, "[2]": {"conditions": "FLV-treated hiPSC-CMs, Figure 6H"}, "[3]": {"conditions": "LPV-treated hiPSC-CMs, Figure 6H"}}}
{"compound": "COCCCC/C(=N\\OCCN)c1ccc(C(F)(F)F)cc1", "note": "[FLV, fluvoxamine]", "values": [{"measurement": "decrease of APD vs CTL", "setting": "hiPSC-CMs; 3 μM FLV", "value": 183.6, "unit": "ms"}, {"measurement": "APD (APD90)", "setting": "hiPSC-CMs; 3 μM FLV", "value": 180.8, "unit": "ms"}, {"measurement": "early after-depolarizations (EADs) during repolarization", "setting": "hiPSC-CMs; 3 μM FLV", "value": "induce the occurrence of EADs"}, {"measurement": "APD10", "setting": "hiPSC-CMs; [2]", "value": "52.3 ± 8.8", "unit": "ms"}, {"measurement": "Amp (amplitude)", "setting": "hiPSC-CMs; [2]", "value": "99.2±9.7", "unit": "mV"}, {"measurement": "MDP (maximum diastolic potential)", "setting": "hiPSC-CMs; [2]", "value": "-51.8±8.3", "unit": "mV"}, {"measurement": "mRNA expression of sodium or calcium channels", "setting": "[1]; 3 μM FLV", "value": "did not significantly alter"}, {"measurement": "level of KCNQ1 nucleic acid", "setting": "KCNQ1; chronic FLV administration", "value": "increased"}, {"measurement": "effect on Ito", "setting": "Ito", "value": "enhances"}, {"measurement": "effect on ICaL", "setting": "ICaL", "value": "decreases"}, {"measurement": "clinical deterioration rate", "setting": "COVID-19", "value": "lower clinical deterioration rate"}]}
{"compound": "Cc1cccc(C)c1OCC(=O)N[C@@H](Cc1ccccc1)[C@@H](O)C[C@H](Cc1ccccc1)NC(=O)[C@H](C(C)C)N1CCCNC1=O", "note": "[LPV, lopinavir]", "values": [{"measurement": "expression of Hsp70", "setting": "Hsp70", "value": "significantly increased"}, {"measurement": "expression levels of Hsp90", "setting": "Hsp90", "value": "significant reduction"}, {"measurement": "decrease of APD vs CTL", "setting": "hiPSC-CMs; 10 μM LPV", "value": 191.8, "unit": "ms"}, {"measurement": "APD (APD90)", "setting": "hiPSC-CMs; 10 μM LPV", "value": 172.6, "unit": "ms"}, {"measurement": "early after-depolarizations (EADs) during repolarization", "setting": "hiPSC-CMs; 10 μM LPV", "value": "induce the occurrence of EADs"}, {"measurement": "APD10", "setting": "hiPSC-CMs; [3]", "value": "48.9 ± 10.3", "unit": "ms"}, {"measurement": "APD30", "setting": "hiPSC-CMs; [3]", "value": "103.6 ± 11.2", "unit": "ms"}, {"measurement": "Amp (amplitude)", "setting": "hiPSC-CMs; [3]", "value": "103.8±6.1", "unit": "mV"}, {"measurement": "MDP (maximum diastolic potential)", "setting": "hiPSC-CMs; [3]", "value": "-59.1±3.6", "unit": "mV"}, {"measurement": "mRNA expression of sodium or calcium channels", "setting": "[1]; 10 μM LPV", "value": "did not significantly alter"}, {"measurement": "level of KCNQ1 nucleic acid", "setting": "KCNQ1; chronic LPV administration", "value": "increased"}, {"measurement": "EC50", "setting": "SARS-CoV-2", "value": 1740, "unit": "nM"}]}
{"compound": "CCN(CC)CCCC(C)Nc1ccnc2cc(Cl)ccc12", "note": "(stereo not shown) [chloroquine]", "values": [{"measurement": "effect on the hERG current (IhERG)", "setting": "hERG potassium channel", "value": "acutely and severely inhibited"}, {"measurement": "trafficking of the hERG protein", "setting": "hERG protein", "value": "prompted the trafficking"}]}
{"compound": "CCN(CCO)CCCC(C)Nc1ccnc2cc(Cl)ccc12", "note": "(stereo not shown) [hydroxychloroquine]", "values": [{"measurement": "effect on the hERG current (IhERG)", "setting": "hERG potassium channel", "value": "acutely and severely inhibited"}]}
{"compound": "CCC(CC)COC(=O)[C@H](C)N[P@](=O)(OC[C@H]1O[C@@](C#N)(c2ccc3c(N)ncnn23)[C@H](O)[C@@H]1O)Oc1ccccc1", "note": "[remdesivir]", "values": [{"measurement": "effect on the hERG current (IhERG)", "setting": "hERG potassium channel", "value": "increased"}, {"measurement": "hERG maturation", "setting": "hERG", "value": "promoted hERG maturation"}]}
